# Measured values as given in publication PMC10637926 (Heliyon, 2023).
# Target: AChE enzyme from Electrophorus electricus (electric eel) (Electrophorus electricus, UniProt O42275)
# Assay: In vitro AChE inhibition, Ellman spectrophotometric procedure
# Format: biochemical
# Conditions: for IC50: IC50 against AChE, dose dependent assay, 412 nm; for inhibition at 100 µM: read-out: AChE inhibition, mean of R1-R3
# Chain of AChE enzyme from Electrophorus electricus (electric eel) (O42275 24-633): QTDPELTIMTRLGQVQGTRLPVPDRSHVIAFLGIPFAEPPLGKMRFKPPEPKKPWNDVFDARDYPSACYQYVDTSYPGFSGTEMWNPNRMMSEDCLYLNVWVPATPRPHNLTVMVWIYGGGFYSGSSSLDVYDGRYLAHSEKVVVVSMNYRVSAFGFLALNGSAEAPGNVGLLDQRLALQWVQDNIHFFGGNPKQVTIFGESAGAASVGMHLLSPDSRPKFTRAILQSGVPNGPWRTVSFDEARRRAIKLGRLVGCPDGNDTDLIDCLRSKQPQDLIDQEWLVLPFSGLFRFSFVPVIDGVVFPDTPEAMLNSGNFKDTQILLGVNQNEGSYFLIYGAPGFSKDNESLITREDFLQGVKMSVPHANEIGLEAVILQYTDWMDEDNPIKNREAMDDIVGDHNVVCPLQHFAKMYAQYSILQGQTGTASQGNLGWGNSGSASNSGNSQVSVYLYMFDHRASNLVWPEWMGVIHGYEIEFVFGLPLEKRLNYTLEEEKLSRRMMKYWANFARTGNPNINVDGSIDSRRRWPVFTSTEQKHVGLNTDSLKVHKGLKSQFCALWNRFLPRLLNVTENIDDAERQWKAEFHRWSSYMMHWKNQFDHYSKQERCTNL
SMILES,IC50 [µM],inhibition at 100 µM [%]
O=c1cc(-c2ccc(O)cc2)oc2cc(O)cc(O)c12 [Apigenin],13.8,80
O=c1c(O)c(-c2ccc(O)c(O)c2)oc2cc(O)cc(O)c12 [Quercetin],–,85.7
COc1c(O)cc(O)c2c(=O)cc(-c3ccccc3)oc12 [Wogonin],15.5,80.3
